Data from patent US20070225246A1, “O-acetyl-ADP-ribose non-hydrolyzable analogs” (priority 2006, published 2007).
Where two headings read alike, the source gives them in different places. Values belong to the molecule of their own block, whether it stands above or below them.

Assays:
[1] = HPLC stability studies at physiological temperature and pH; format: physicochemical; settings: 500 μM in 50 mM Tris pH 7.5, 1 mM DTT, 37° C.
Procedure: To validate the installation of an N-acetyl as a non-hydrolyzable substitution, the stabilities of both 2′- and 3′-NAADPr were evaluated at physiological temperature and pH using conditions previously described (Borra et al., 2002, J. Biol. Chem. 277: 12632-12641). […] HPLC analysis of both 2′- and 3′-NAADPr using exact conditions indicated negligable decomposition (<1%) over 3 days and confirmed the stability of the acetyl funcitonality to spontaneous hydrolysis at physiological pH.
Reactions were carried out with both analogs (final concentration of 500 μM) in 50 mM Tris (pH 7.5 at 37° C.) containing 1 mM DTT. Samples were incubated at 37° C. over 3 days and four time points were collected (0, 24, 48, and 72 h). Each sample was quenched with H2O containing 0.05% TFA and analyzed by HPLC (analytical C18) using the method described in general procedures. Each trace was integrated (Shimadzu EZStart version 7.2.1 SP1) to determine peak area and analog percentage is shown in the following table 1. Both 2′- and 3′-NAADPr contained trace impurities at 12.9 and 12.5 min respectively and contributed to the observed degradation products visible at 23.3 min in each study.

[2] = target: T1, YSA1 (Saccharomyces cerevisiae, UniProt Q01976); experiment: Nudix hydrolase hydrolysis by YSA1 (Michaelis-Menten); format: biochemical, yeast; settings: substrate 5-300 μM, YSA1 10 ng
T1 sequence (Q01976 1-231): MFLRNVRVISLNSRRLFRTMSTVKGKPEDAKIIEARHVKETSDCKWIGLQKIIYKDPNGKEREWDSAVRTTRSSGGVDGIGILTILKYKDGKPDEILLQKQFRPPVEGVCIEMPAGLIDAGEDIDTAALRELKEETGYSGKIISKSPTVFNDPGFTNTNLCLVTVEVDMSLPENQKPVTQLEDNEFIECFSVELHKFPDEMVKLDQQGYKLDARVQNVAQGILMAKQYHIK
Procedure: (§1) The Nudix hydrolases, mNudT5 and YSA1, and NudT9 are a family of ADPr metabolizing enzymes. […] Reaction mixtures containing ADPr (5-300 μM) were incubated with NudT9 (100 ng) or YSA1 (10 ng). Michaelis-Menten plots were generated for the hydrolysis of ADPr by NudT9 and YSA1. […] The hydrolysis of 2′- and 3′-NAADPr is evaluated using a protocol similar to that described by Rafty.

[3] = target: splice-variant MacroH2A1.2 (Homo sapiens, UniProt O75367); experiment: MacroH2A1.2 binding (calorimetry); settings: method similar to Kustatcher
Sequence of splice-variant MacroH2A1.2 (O75367 1-372 isoform O75367-1): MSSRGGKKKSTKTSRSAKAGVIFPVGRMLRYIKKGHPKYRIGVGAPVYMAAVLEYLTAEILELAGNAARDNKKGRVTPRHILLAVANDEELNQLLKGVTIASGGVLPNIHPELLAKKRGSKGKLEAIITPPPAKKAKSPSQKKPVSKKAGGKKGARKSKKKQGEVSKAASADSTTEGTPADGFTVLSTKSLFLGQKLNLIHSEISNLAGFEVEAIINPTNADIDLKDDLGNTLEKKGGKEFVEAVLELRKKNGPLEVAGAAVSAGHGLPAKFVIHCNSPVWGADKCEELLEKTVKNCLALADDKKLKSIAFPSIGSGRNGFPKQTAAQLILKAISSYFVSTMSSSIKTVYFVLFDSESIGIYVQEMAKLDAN
Source text: (§2) MacroH2A1.1 is an atypical histone variant associated with heterochromatin and implicated in transcriptional repression. […] The splice-variant MacroH2A1.2 was also studied, but no binding of ADPr was observed. The binding of 2′- and 3′-NAADPr may be evaluated using a protocol similar to that described by Kustatcher.

[4] = target: T2, human macroH2A1.1 domain (Homo sapiens, UniProt O75367); experiment: MacroH2A1.1 binding (calorimetry); settings: method similar to Kustatcher
T2 sequence (O75367 184-367 limits assumed): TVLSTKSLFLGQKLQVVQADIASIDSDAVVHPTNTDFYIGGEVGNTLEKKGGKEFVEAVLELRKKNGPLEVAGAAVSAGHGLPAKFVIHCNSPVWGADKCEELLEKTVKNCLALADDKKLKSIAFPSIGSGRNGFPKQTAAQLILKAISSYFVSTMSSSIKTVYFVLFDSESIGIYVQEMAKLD
Source text: as §2

[5] = target: T3, NudT9 (Homo sapiens, UniProt Q9BW91); experiment: Nudix hydrolase hydrolysis by NudT9 (Michaelis-Menten); format: biochemical; settings: substrate 5-300 μM, NudT9 100 ng
T3 sequence (Q9BW91 47-350): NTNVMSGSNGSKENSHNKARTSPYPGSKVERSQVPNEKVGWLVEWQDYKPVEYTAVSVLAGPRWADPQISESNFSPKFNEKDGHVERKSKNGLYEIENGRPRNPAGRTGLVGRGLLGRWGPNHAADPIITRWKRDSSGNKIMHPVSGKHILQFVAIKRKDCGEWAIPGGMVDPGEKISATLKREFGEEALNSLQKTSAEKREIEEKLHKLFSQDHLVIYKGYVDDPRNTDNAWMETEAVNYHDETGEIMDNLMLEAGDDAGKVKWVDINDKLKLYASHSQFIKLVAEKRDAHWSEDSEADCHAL
Procedure: as §1

[6] = target: T1, YSA1; settings: in vitro (Rafty et al., 2002); cited from earlier work
[7] = within 3 h, physiological temperature and pH (Borra et al., 2002); cited from earlier work
[8] = target: T3, NudT9; settings: in vitro (Rafty et al., 2002); cited from earlier work
[9] = target: mNudT5 (Mus musculus, UniProt Q9JKX6); settings: in vitro (Rafty et al., 2002); cited from earlier work
Sequence of mNudT5 (Q9JKX6 whole entry): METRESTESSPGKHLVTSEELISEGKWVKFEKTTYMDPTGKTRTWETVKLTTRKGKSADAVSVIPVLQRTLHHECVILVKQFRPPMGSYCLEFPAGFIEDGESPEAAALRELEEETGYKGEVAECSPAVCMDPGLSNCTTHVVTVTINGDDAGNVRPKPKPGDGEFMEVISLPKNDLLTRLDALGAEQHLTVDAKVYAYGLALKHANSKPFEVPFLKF

[10] = target: T2, human macroH2A1.1 domain; settings: calorimetry, Kustatcher et al., 2005; cited from earlier work

Molecule: 3′-N-Acetyl-ADP-ribose [3′-NAADPr]
analog percentage (HPLC peak area) ([1]; 0 h): 95.7%
analog percentage (HPLC peak area) ([1]; 24 h): 98.2%
analog percentage (HPLC peak area) ([1]; 48 h): 98.0%
analog percentage (HPLC peak area) ([1]; 72 h): 98.0%

analog percentage (HPLC peak area) ([1]; 0 h): 98.7%
analog percentage (HPLC peak area) ([1]; 24 h): 98.7%
analog percentage (HPLC peak area) ([1]; 48 h): 98.2%
analog percentage (HPLC peak area) ([1]; 72 h): 98.3%
Molecule: CC(=O)NC1C(O)O[C@H](COP(=O)(O)OP(=O)(O)OC[C@H]2O[C@@H](n3cnc4c(N)ncnc43)C(O)C2O)[C@@H]1O (stereo partly drawn) [2′-NAADPr, 2′-N-Acetyl-ADP-ribose]

Km [2]: 39.9 µM
kcat [2]: 6.5 s⁻¹
binding [3]: no binding
Kd [4]: 2.4 µM
enthalpy [4]: -15.4 kcal/mol
Km [5]: 23.9 µM
kcat [5]: 9.3 s⁻¹
Molecule: Nc1ncnc2c1ncn2[C@@H]1O[C@H](COP(=O)(O)OP(=O)(O)OC[C@H]2OC(O)[C@H](O)[C@@H]2O)[C@@H](O)[C@H]1O (stereo partly drawn) [ADPr, ADP-ribose]

Molecule: O-Acetyl-ADP-ribose [OAADPr]
hydrolysis to AMP and acetylated ribose 5′-phosphate [6]: efficiently hydrolyze
hydrolyzed to ADPr [7]: approximately 18%
hydrolysis efficiency, less efficient as compared to ADPr [8]: 500 fold
hydrolysis to AMP and acetylated ribose 5′-phosphate [9]: efficiently hydrolyze
Kd [10]: ~2 µM
enthalpy [10]: -17.8 kcal/mol
